According to patent US9975921B2, “Crystal forms of anamorelin” (Helsinn Healthcare SA, priority 2004, dated 2018):

What was measured:
Assay type in all cases: physicochemical
[1] = Hygroscopicity study: Dynamic Vapor Sorption analysis (DVS)
Protocol: (§1) The hygroscopicity of (3R)-1-(2-methylalanyl-D-tryptophyl)-3-(phenylmethyl)-3-piperidinecarboxylic acid 1,2,2-trimethylhydrazide form C produced by the method disclosed in Example 4 (monohydrate) was evaluated using Dynamic Vapor Sorption analysis (DVS) and Thermogravimetric analysis (TGA). Dynamic Vapor Sorption Analysis (DVS)
The samples were analyzed using a Hiden IGAsorp vapor sorption analyzer. Each sample was placed in a sample pan and exposed to drying at 25° C. in a dry nitrogen stream for two hours. This assured that the samples being analyzed were at a constant weight prior to the start of the analysis. The samples were then analyzed at 25.0° C. The adsorption isotherm was conducted between: 10-90% RH with a step size of 10%. The desorption isotherm was conducted between 85-0% RH with a step size 10%. After the isotherms were complete, each of the samples were heated to 125° C. until the weight loss curve reached an asymptote or for 4 hours.

[2] = Hygroscopicity study: Thermogravimetric analysis (TGA); details: before DVS
Protocol: as §1
The samples were analyzed using a Mettler 851e thermogravimetric analyzer. Samples were weighed into a crucible. The samples were heated from 30° C. to 300.0° C. ramped at 10.00° C./min with an air purge.

[3] = 12 month stability study: HPLC weight % (TM-808)
Protocol: (§2) Crystalline (3R)-1-(2-methylalanyl-D-tryptophyl)-3-(phenylmethyl)-3-piperidinecarboxylic acid 1,2,2-trimnethylhydrazide was placed in double plastic bags, closed under a nitrogen blanket, and placed inside a small fiberboard container, the physical appearance, water content, purity and crystallinity were tested every three months for a period of 12 months under a variety of conditions.
(§3) The purity and water content of (3R)-1-(2-methylalanyl-D-tryptophyl)-3-(phenylmethyl)-3-piperidinecarboxylic acid 1,2,2-trimethylhydrazide was analyzed using HPLC and KF respectively before, during, and after the 12 month stability study.

[4] = 12 month stability study: DSC (USP <891>)
Protocol: as §2

[5] = 12 month stability study: water content by Karl Fischer; details: 1 month
[6] = 12 month stability study: crystallinity using optical microscopy (USP <695>)
Protocol: as §2

[7] = 12 month stability study: water content by Karl Fischer
Protocol: as §2, §3

[8] = 12 month stability study: HPLC area % (TM-808)
Protocol: as §2, §3

[9] = 12 month stability study: physical description (TM-106)
Protocol: as §2

CN(C)N(C)C(=O)[C@@]1(Cc2ccccc2)CCCN(C(=O)[C@@H](Cc2c[nH]c3ccccc23)NC(=O)C(C)(C)N)C1 [Form C monohydrate, (3R)-1-(2-methylalanyl-D-tryptophyl)-3-(phenylmethyl)-3-piperidinecarboxylic acid 1,2,2-trimethylhydrazide]
relative humidity above which the dihydrate was formed ([1]; DVS): > 35% | water contained after steady adsorption ([1]; adsorption isotherm, 25.0° C., at 35% RH): 6 % by weight | additional adsorption ([1]; adsorption isotherm, up to 90% RH): No other significant additional adsorption | relative humidity down to which the dihydrate form was observed ([1]; desorption isotherm): 30 % RH | bound water initially contained [2]: 2.5 % by weight

CN(C)N(C)C(=O)[C@@]1(Cc2ccccc2)CCCN(C(=O)[C@@H](Cc2c[nH]c3ccccc23)NC(=O)C(C)(C)N)C1 [crystalline anamorelin, (3R)-1-(2-methylalanyl-D-tryptophyl)-3-(phenylmethyl)-3-piperidinecarboxylic acid 1,2,2-trimethylhydrazide]
HPLC Weight % ([3]; 5° C., 1 month): 92.0% | HPLC Weight % ([3]; 5° C., 3 months): 93.2% | HPLC Weight % ([3]; 5° C., 6 months): 93.9% | HPLC Weight % ([3]; 5° C., 9 months): 94.5% | HPLC Weight % ([3]; 5° C., 12 months): 94.3% | HPLC Weight % ([3]; 25° C. 60% RH, 1 month): 92.1% | HPLC Weight % ([3]; 25° C. 60% RH, 3 months): 93.2% | HPLC Weight % ([3]; 25° C. 60% RH, 6 months): 94.2% | HPLC Weight % ([3]; 25° C. 60% RH, 9 months): 94.6% | HPLC Weight % ([3]; 25° C. 60% RH, 12 months): 94.2% | HPLC Weight % ([3]; 40° C. 75% RH, 1 month): 91.8% | HPLC Weight % ([3]; 40° C. 75% RH, 3 months): 93.0% | HPLC Weight % ([3]; 40° C. 75% RH, 6 months): 94.1% | HPLC Weight % ([3]; Initial): 99.8% | DSC Onset ([4]; 5° C., 3 months): 112.1 °C | DSC Peak ([4]; 5° C., 3 months): 117.1 °C | DSC Onset ([4]; 5° C., 6 months): 112.3 °C | DSC Peak ([4]; 5° C., 6 months): 116.9 °C | DSC Onset ([4]; 25° C. 60% RH, 3 months): 112.6 °C | DSC Peak ([4]; 25° C. 60% RH, 3 months): 117.7 °C | DSC Onset ([4]; 25° C. 60% RH, 6 months): 112.5 °C | DSC Peak ([4]; 25° C. 60% RH, 6 months): 117 °C | DSC Onset ([4]; 40° C. 75% RH, 3 months): 112.2 °C | DSC Peak ([4]; 40° C. 75% RH, 3 months): 117.5 °C | DSC Onset ([4]; 40° C. 75% RH, 6 months): 125.5 °C | DSC Peak ([4]; 40° C. 75% RH, 6 months): 117.8 °C | DSC Onset ([4]; Initial): 108.2 °C | DSC Peak ([4]; Initial): 112.7 °C | Water content by Karl Fisher ([5]; 5° C.): 5.3% | Water content by Karl Fisher ([5]; 25° C. 60% RH): 5.8% | Water content by Karl Fisher ([5]; 40° C. 75% RH): 6.1% | Crystallinity using Optical Microscopy ([6]; 5° C., 1 month): Crystal- | Crystallinity using Optical Microscopy ([6]; 5° C., 3 months): Crystal- | Crystallinity using Optical Microscopy ([6]; 5° C., 6 months): Crystal- | Crystallinity using Optical Microscopy ([6]; 5° C., 9 months): Crystal- | Crystallinity using Optical Microscopy ([6]; 5° C., 12 months): Crystal- | Crystallinity using Optical Microscopy ([6]; 25° C. 60% RH, 1 month): Crystal- | Crystallinity using Optical Microscopy ([6]; 25° C. 60% RH, 3 months): Crystal- | Crystallinity using Optical Microscopy ([6]; 25° C. 60% RH, 6 months): Crystal- | Crystallinity using Optical Microscopy ([6]; 25° C. 60% RH, 9 months): Crystal- | Crystallinity using Optical Microscopy ([6]; 25° C. 60% RH, 12 months): Crystal- | Crystallinity using Optical Microscopy ([6]; 40° C. 75% RH, 1 month): Crystal- | Crystallinity using Optical Microscopy ([6]; 40° C. 75% RH, 3 months): Crystal- | Crystallinity using Optical Microscopy ([6]; 40° C. 75% RH, 6 months): Crystal- | Crystallinity using Optical Microscopy ([6]; Initial): Crystal- | Water content by Karl Fisher ([7]; 5° C., 3 months): 6.0% | Water content by Karl Fisher ([7]; 5° C., 6 months): 5.8% | Water content by Karl Fisher ([7]; 5° C., 9 months): 5.6% | Water content by Karl Fisher ([7]; 5° C., 12 months): 6.1% | Water content by Karl Fisher ([7]; 25° C. 60% RH, 3 months): 6.0% | Water content by Karl Fisher ([7]; 25° C. 60% RH, 6 months): 5.9% | Water content by Karl Fisher ([7]; 25° C. 60% RH, 9 months): 5.7% | Water content by Karl Fisher ([7]; 25° C. 60% RH, 12 months): 5.8% | Water content by Karl Fisher ([7]; 40° C. 75% RH, 3 months): 6.1% | Water content by Karl Fisher ([7]; 40° C. 75% RH, 6 months): 5.9% | water content (Karl Fischer Analysis) ([7]; after 12 months): approximately 6% | HPLC Area % ([8]; 5° C., 1 month): 99.7% | HPLC Area % ([8]; 5° C., 3 months): 99.7% | HPLC Area % ([8]; 5° C., 6 months): 99.7% | HPLC Area % ([8]; 5° C., 9 months): 99.8% | HPLC Area % ([8]; 5° C., 12 months): 99.7% | HPLC Area % ([8]; 25° C. 60% RH, 1 month): 99.7% | HPLC Area % ([8]; 25° C. 60% RH, 3 months): 99.7% | HPLC Area % ([8]; 25° C. 60% RH, 6 months): 99.7% | HPLC Area % ([8]; 25° C. 60% RH, 9 months): 99.8% | HPLC Area % ([8]; 25° C. 60% RH, 12 months): 99.7% | HPLC Area % ([8]; 40° C. 75% RH, 1 month): 99.7% | HPLC Area % ([8]; 40° C. 75% RH, 3 months): 99.7% | HPLC Area % ([8]; 40° C. 75% RH, 6 months): 99.7% | HPLC Area % ([8]; Initial): 99.8% | purity ([8]; after 12 months): relatively unchanged | Physical Description ([9]; 5° C., 1 month): Off-white | Physical Description ([9]; 5° C., 3 months): Off-white | Physical Description ([9]; 5° C., 6 months): Off-white | Physical Description ([9]; 5° C., 9 months): White | Physical Description ([9]; 5° C., 12 months): Off-white | Physical Description ([9]; 25° C. 60% RH, 1 month): Off-white | Physical Description ([9]; 25° C. 60% RH, 3 months): Off-white | Physical Description ([9]; 25° C. 60% RH, 6 months): Off-white | Physical Description ([9]; 25° C. 60% RH, 9 months): Off-white | Physical Description ([9]; 25° C. 60% RH, 12 months): Off-white | Physical Description ([9]; 40° C. 60% RH, 1 month): Off-white | Physical Description ([9]; 40° C. 60% RH, 3 months): Off-white | Physical Description ([9]; 40° C. 60% RH, 6 months): Off-white | Physical Description ([9]; Initial): Off-white
